The values below come from paper PMC11847541, “Liver fatty acid binding protein FABP1 transfers substrates to cytochrome P450 4A11 for catalysis” (The Journal of Biological Chemistry, 2025).

Entries after “also recorded” stand apart in the source; their conditions may differ. Where two headings read alike, the source gives them in different places.

For data set [1], the target named is T1, FABP1 (Homo sapiens, UniProt P07148).
T1 construct: GST (N, cleaved yes); made in house; host or cells: Escherichia coli DH5α
T1 sequence (P07148 with tags, fused parts or gaps): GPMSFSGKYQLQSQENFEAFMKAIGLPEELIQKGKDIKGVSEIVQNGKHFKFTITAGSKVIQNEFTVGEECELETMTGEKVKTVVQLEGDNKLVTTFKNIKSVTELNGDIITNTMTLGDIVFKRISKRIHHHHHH
The data set can be described thus: Fluorescence titration of DAUDA with FABP1 (reverse titration). Format: binding. Particulars: DAUDA 50 nM, FABP1 titrated, quadratic fit. The protocol:
Binding of DAUDA to FABP1 was assessed in a “reverse titration” where FABP1 was titrated into a fixed concentration of DAUDA (50 nM), yielding a characteristic gain of fluorescence (Fig. 4A) at 482 nm. FABP1 was titrated into a solution of DAUDA (“reverse titration”) and not vice versa because of the intrinsic fluorescence of DAUDA (Fig. S11E), which overlaps with the spectrum of DAUDA–FABP1 (Fig. 4A). The intrinsic fluorescence of DAUDA was generally only problematic at concentrations much higher (>500 nM) than used in the assays (50 nM), though we sought to eliminate this additional variable by performing the reverse titration to estimate the Kd.
Figure 4 Fluorescence titration of DAUDA with FABP1 (“reverse” titration).A, fluorescence spectra (λex = 335 nm) of DAUDA (0.05 μM) collected with increasing concentrations of FABP1 (0–1.25 μM). The binding of DAUDA to FABP1 is accompanied by a gain of fluorescence, indicated with an arrow. B, titration curve calculated with data points (n = 1) at the observed fluorescence maximum (482 nm) and plotted versus concentration of FABP1. Data were fit to a quadratic equation. DAUDA, 11-dansylaminoundecanoic acid; FABP1, fatty acid binding protein. […]

Data set [2] is described as follows: Stability of DAUDA stock solutions. In kind it is physicochemical. As for the experimental part: DAUDA stock solutions (10 mM, prepared in C2H5OH) could be stored at −20 °C for up to 1 week with no significant decay of the UV spectrum and no formation of degradation peaks in the LC–MS chromatogram. Storage under these conditions for more than 1 week did compromise sample integrity (and the samples were discarded). We later observed that DAUDA stock solutions (10 mM) prepared in 50 mM K2CO3 and frozen at −80 °C could undergo several freeze–thaw cycles over the course of 2 months with no significant decay of the UV spectrum and no formation of degradation peaks in the LC–MS chromatogram.

The target of data set [3] is T1, FABP1. The settings on record: cited from earlier work.
Data set [4] deals with T2, P450 4A11 (Homo sapiens, UniProt Q02928).
T2 sequence (Q02928 5-519): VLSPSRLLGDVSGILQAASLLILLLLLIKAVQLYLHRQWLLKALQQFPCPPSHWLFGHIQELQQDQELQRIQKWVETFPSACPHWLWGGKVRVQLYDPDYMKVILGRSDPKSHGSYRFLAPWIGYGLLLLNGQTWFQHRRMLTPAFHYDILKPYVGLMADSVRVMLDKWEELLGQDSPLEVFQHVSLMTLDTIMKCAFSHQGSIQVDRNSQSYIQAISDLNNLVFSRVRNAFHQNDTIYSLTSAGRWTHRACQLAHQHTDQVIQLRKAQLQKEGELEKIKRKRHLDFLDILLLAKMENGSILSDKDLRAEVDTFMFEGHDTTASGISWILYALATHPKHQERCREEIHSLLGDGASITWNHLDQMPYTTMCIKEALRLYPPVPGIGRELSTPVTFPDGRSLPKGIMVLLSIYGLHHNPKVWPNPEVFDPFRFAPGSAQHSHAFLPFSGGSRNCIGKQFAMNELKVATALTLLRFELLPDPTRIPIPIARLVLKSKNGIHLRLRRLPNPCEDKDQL
Briefly: Equilibrium binding titrations of P450 4A11 with lipids (heme Soret spectral shift). The settings on record: P450 1 µM, DAUDA 1 nM to 10 µM.
Protocol: Affinity of palmitate and 16-OH palmitate for P450 4A11 (1 μM) was assessed by monitoring the blue shift (from ∼420 nm to ∼390 nm) of the P450 heme Soret band as a substrate binds and displaces the sixth axial heme ligand (H2O) to yield pentacoordinated heme (“type I” shift) ([26]).
P450 4A11 (1 μM) was titrated with (A) palmitate and (B) 16-OH palmitate in a 1.0 cm pathlength cell. Difference plots were calculated from absorbance maxima (∼390 nm) and minima (∼420 nm), and the data were fit to a hyperbolic equation. The insets in each panel are the difference spectra between a cuvette that received the lipid substrate and a cuvette that received solvent alone. Each data point corresponds to one independent replicate.
Equilibrium binding titrations with P450 4A11 (1 μM) were performed in buffer (100 mM potassium phosphate [pH 7.4]) as described previously ([44], [56]). Briefly, a baseline was first acquired on an OLIS-Cary 14 spectrophotometer set to scan from 350 to 500 nm in 1 cm glass cuvettes. […] The cuvettes were mixed with a plumper after additions, and spectra were recorded. The spectra were exported into Microsoft Excel software, and the absorbance values at 418 nm were subtracted from those at 390 nm and the values were plotted as a function of lipid concentration.
Titration of P450 4A11 with DAUDA. The P450 concentration was 1 µM and the DAUDA concentration was varied using a geometric series from 1 nM to 10 µM. […] The increase in absorbance in the UV region is due to the strong chromophore in the DAUDA dansyl moiety (Fig. S8).

Data set [5] has as its target T1, FABP1. The data set can be described thus: Stopped-flow kinetics of DAUDA binding to FABP1. The protocol:
In order to measure the rate of binding of DAUDA to FABP1, four concentrations (0.5–12.5 μM) of DAUDA were rapidly mixed with FABP1 (0.5 μM), and the gain of fluorescence (at 482 nm, Fig. 4A) was monitored over time (Fig. 6, A–D). […] A kon value (k4) of 9.0 ± 0.2 × 10^7 M^−1 s^−1 was calculated from the data (see the Experimental procedures section) (Fig. 6F).
Figure 6 Kinetics of binding of DAUDA to FABP1. FABP1 (0.5 μM) was mixed with (A) 0.5 μM, (B) 2.5 μM, (C) 5 μM, and (D) 12.5 μM DAUDA to yield the binding traces shown. DAUDA–FABP1 was excited (λex = 335 nm) as in Fig. 4 and total fluorescence signal >420 nm was collected. Data were fit to double exponential curves, and (E) the rate of the fast phase was extracted and plotted against DAUDA concentration. The data curve was fit to a Michaelis–Menten-type hyperbola. Each trace corresponds to ≥6 averaged replicate traces. In part A, the binding of DAUDA (0.5 μM) was proportional to the disappearance of protein (0.5 μM). The reciprocal concentration of FABP1 was plotted against time in part F, and the slope of the linear portion (linear regression in red) of that curve ([77]) gave an on-rate (kon) of 9.0 × 10^7 M^−1 s^−1. DAUDA, 11-dansylaminoundecanoic acid; FABP1, fatty acid binding protein.
Determination of the DAUDA on-rate (kon) to FABP1 was performed by mixing FABP1 (1 μM) and DAUDA ([…], see “Preparation of DAUDA stock solutions”) solutions (both in 100 mM potassium phosphate buffer, pH 7.4) in equal proportion (yielding a twofold dilution of all reaction components) using an OLIS stopped-flow spectrofluorometer with the parameters set as described earlier (see “P450 4A11 kon determinations”). […] At least six replicate measurements were recorded, the spectra were processed such that the fluorescence gain (from DAUDA binding) began at an (x, y) intercept of (0, 0), and the spectra were averaged and fit to double exponential plots in GraphPad Prism, and the rates for the fast (kon) and slow phases of binding were extracted. Then, as the first experiment was recorded by mixing equimolar (1 μM) concentrations of FABP1 and DAUDA and the binding was rapid, we approximated the binding as 2A → C (i.e., mathematically equivalent to A + B → C when the depletion of B is equal to the depletion of A ([77])). We plotted [FABP]^−1 as a function of time and fit the data to a linear equation (the slope of which is kon).

As usually defined, the Kd is the free concentration of one partner at which half of the binding sites on the other are occupied at equilibrium, for simple one-to-one binding. Usually kon stands for a measure of how fast the partners come together. In general, koff refers to the first-order rate constant of dissociation. In the case of `CN(C)c1cccc2c(S(=O)(=O)NCCCCCCCCCCC(=O)O)cccc12` [DAUDA, 11-dansylaminoundecanoic acid], the Kd was 56 nM in data set [1]; 200 nM in data set [3] (human ortholog, high-affinity site, read-out: Kd,1); > 3300 nM in data set [3] (human ortholog, low-affinity site, read-out: Kd,2); > 460 nM in data set [3] (literature estimate, high-affinity site, read-out: Kd). Moreover, the “storage time with no significant decay of UV spectrum and no degradation peaks” value in data set [2] (10 mM in 50 mM K2CO3, −80 °C, several freeze–thaw cycles) is recorded as 2 months; in data set [2] (10 mM in C2H5OH, −20 °C) it was “up to 1 week”. The “binding to P450 4A11 (type I spectral shift)” value in data set [4] is listed as “not detected; also recorded: did not bind”. For the same compound, the kon in data set [5] (FABP1 0.5 μM, DAUDA 0.5 μM, read-out: kon of DAUDA to FABP1 (k4)) was 9e+07 M⁻¹ s⁻¹. In addition, the koff in data set [5] (calculated from kon and Kd) is 5 s⁻¹. The “koff from FABP1 relative to koff from P450 4A11” value in data set [5] (faster) is 25 fold. Also, the “kon of DAUDA to FABP1 relative to palmitate binding to P450 4A11” value in data set [5] (faster) is > 2000 fold.
